Test systems include SW-620; SNB-19; HCC 2998; COLO 205; HOP-62; SK-MEL-2; DU-145; HCT-15; UO-31; IGROV-1; A549; NCI/ADR-RES; ACHN; SK-MEL-28; MCF7; SK-OV-3; HT-29; A498; Malme-3M; HL-60.
What all share (assay): inhibition of tumour cell growth, NCI panel, 48 h

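Cells were grown in 96-well plates and exposed to each compound for 48 hours at five concentrations; endpoints were interpolated linearly between bracketing concentrations, or set to the highest concentration if not reached. Here, GI50 denotes the concentration required for 50% inhibition of growth.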 Calls of active or inactive are those of the source. Rule as the data show it: active = GI50 up to about 1.1 µM and inactive = higher. A value given as a limit tells only on which side of the number the result lay.

From ChEMBL document CHEMBL1201862, “PubChem BioAssay data set” (2004) come the findings set out here.

As to `O=C(/C=C/C=C/c1ccccc1)c1ccc2c(c1)CCCC2`, the GI50 with SW-620 is 45.8 µM (inactive); in the test on SNB-19 it was 97.7 µM (inactive); in the test on HCC 2998, 23 µM (inactive); in the test with COLO 205, 40.4 µM (inactive); in the test with HOP-62, 91.6 µM (inactive); with SK-MEL-2, 83.2 µM (inactive). For the same compound, the GI50 with DU-145 is 25.5 µM (inactive); in the test with HCT-15, 36 µM; in the test with UO-31, 61 µM (inactive); in the test on IGROV-1, 42.8 µM (inactive); with A549 it was 49.8 µM (inactive); with NCI/ADR-RES, 25.8 µM (inactive). In addition, the GI50 in the test with ACHN was 70.8 µM (inactive); in the test with SK-MEL-28 it was > 100 µM (inactive); with MCF7, 32 µM (inactive); in the test with SK-OV-3, 72.9 µM (inactive); in the test with HT-29 it was 28.4 µM (inactive); with A498, 38 µM (inactive).
For `CCOC(=O)c1ccc(N2C(=S)N(C(=O)c3ccccc3)C(=N/c3ccccc3)/C2=N\c2ccccc2)cc1`, the GI50 in the test with SW-620 was > 100 µM (inactive); in the test with SNB-19, 72.9 µM (inactive); with HCC 2998, > 100 µM (inactive); with HOP-62 it was 19.7 µM (inactive); with Malme-3M, 53.5 µM (inactive); in the test on SK-MEL-2, 40.6 µM (inactive). Also, the GI50 is 92.9 µM (inactive) in the test with DU-145; above 100 µM with HCT-15; 56.9 µM (inactive) with UO-31; 49.5 µM (inactive) with IGROV-1; 52.8 µM (inactive) in the test with A549; > 100 µM (inactive) in the test with NCI/ADR-RES. Moreover, the GI50 in the test on ACHN was 37.8 µM (inactive); with SK-MEL-28, > 100 µM (inactive); in the test on MCF7, 55.3 µM (inactive); with SK-OV-3 it was 32 µM (inactive); in the test on HT-29, > 100 µM (inactive).
On to `Nc1c(S(=O)(=O)O)cc(S(=O)(=O)O)c2ccc(/N=N/c3ccccc3)c(O)c12`, for which the GI50 with HL-60, with SW-620, in the test on SNB-19, with COLO 205, with HOP-62 and in the test on Malme-3M was > 100 µM (inactive) in each case. Also, the GI50 with SK-MEL-2 is > 100 µM (inactive); with DU-145, > 100 µM (inactive); in the test on HCT-15 it was above 100 µM; in the test with UO-31, > 100 µM (inactive); in the test on IGROV-1, > 100 µM (inactive); in the test on A549 it was > 100 µM (inactive). In addition, the GI50 with NCI/ADR-RES, in the test with ACHN, with SK-MEL-28, in the test with MCF7, with SK-OV-3 and in the test with HT-29 was > 100 µM (inactive) each time. For the same compound, the GI50 in the test with A498 is > 100 µM (inactive).
On to `CC[C@@]1(C[C@H]2C[C@@]3(C(=O)OC)c4[nH]c5ccccc5c4CCN3C2=O)COC2(CCCCC2)O1`, for which the GI50 with HL-60 is 18.9 µM (inactive); in the test on SNB-19, 12.5 µM (inactive); with HCC 2998, 21.2 µM (inactive); in the test with COLO 205, 34.4 µM (inactive); in the test with HOP-62, 22.3 µM (inactive); with Malme-3M, 55.3 µM (inactive). In addition, the GI50 in the test on SK-MEL-2 is 32.2 µM (inactive); in the test with DU-145, 41.8 µM (inactive); in the test with HCT-15, 33.3 µM; in the test with UO-31, 18.1 µM (inactive); in the test on IGROV-1, 43.9 µM (inactive); in the test on A549, 24.5 µM (inactive). For the same compound, the GI50 was 31.8 µM (inactive) in the test with NCI/ADR-RES; 30.9 µM (inactive) in the test on ACHN; 25.5 µM (inactive) in the test with MCF7; 69.5 µM (inactive) in the test with SK-OV-3; 27.4 µM (inactive) in the test on HT-29.
Regarding `CC(C)(C)OC(=O)N/N=C(/N)c1ccccc1`, the GI50 is 6.55 µM (inactive) in the test on HL-60; > 100 µM (inactive) in the test on SNB-19; > 100 µM (inactive) in the test with HCC 2998; > 100 µM (inactive) with COLO 205; > 100 µM (inactive) with HOP-62; > 100 µM (inactive) in the test with Malme-3M. Also, the GI50 was > 100 µM (inactive) in the test with SK-MEL-2; > 100 µM (inactive) in the test on DU-145; above 100 µM with HCT-15; > 100 µM (inactive) in the test on UO-31; > 100 µM (inactive) in the test with IGROV-1; > 100 µM (inactive) in the test with A549. Besides, the GI50 in the test with NCI/ADR-RES, with ACHN, in the test with SK-MEL-28, in the test on MCF7, in the test on SK-OV-3 and in the test with HT-29 was > 100 µM (inactive) in each case.
Regarding `COC(=O)C12Oc3ccc(-c4ccc5c(c4O)C(O)=C4C(=O)CC(C)C(O)C4(C(=O)OC)O5)c(O)c3C(O)=C1C(=O)CC(C)C2O` (configuration not stated), the GI50 is 0.102 µM (active) in the test on HL-60; 0.0889 µM (active) in the test on SW-620; 0.583 µM (active) in the test on SNB-19; 0.0656 µM (active) with COLO 205; 0.0644 µM (active) in the test on HOP-62; 0.0217 µM (active) in the test on Malme-3M. Also, the GI50 is 0.0798 µM (active) in the test with SK-MEL-2; 0.547 µM (active) with DU-145; 0.216 µM in the test on HCT-15; 0.156 µM (active) in the test on UO-31; 0.104 µM (active) in the test on IGROV-1; 0.0702 µM (active) with A549. Further, the GI50 is 0.485 µM (active) with NCI/ADR-RES; 0.153 µM (active) in the test on ACHN; 0.0397 µM (active) with SK-MEL-28; 0.151 µM (active) in the test on MCF7; 0.103 µM (active) in the test on SK-OV-3; 0.0495 µM (active) with HT-29. The GI50 with A498 was 0.544 µM (active).
As for `O=c1c2cc(S(=O)(=O)Nc3c(Cl)cccc3Cl)ccc2ncn1NS(=O)(=O)c1ccc2ccccc2c1`, the GI50 in the test with HL-60 was 20.2 µM (inactive); in the test with SW-620 it was > 62.5 µM (inactive); with SNB-19, 32.6 µM (inactive); with HCC 2998, 24.4 µM (inactive); in the test on COLO 205 it was 46.6 µM (inactive); in the test with HOP-62 it was 13 µM (inactive). The GI50 was > 62.5 µM (inactive) with Malme-3M; 20 µM (inactive) in the test with SK-MEL-2; 42.9 µM (inactive) in the test on DU-145; 39.6 µM in the test on HCT-15; 10.9 µM (inactive) in the test on UO-31; 8.67 µM (inactive) in the test on IGROV-1. For the same compound, the GI50 in the test on A549, in the test on NCI/ADR-RES, in the test with ACHN, with SK-MEL-28, with MCF7 and in the test with SK-OV-3 was > 62.5 µM (inactive) in each case. Also, the GI50 in the test with HT-29 was 16.4 µM (inactive).
In the case of `COc1ccc(C(Cc2ccccc2)C2NC(=S)NC2=O)cc1` (configuration not stated), the GI50 in the test with HL-60, in the test on SW-620, in the test on SNB-19, in the test on COLO 205, in the test on HOP-62 and in the test with Malme-3M was > 25 µM (inactive) in each case. Moreover, the GI50 was > 25 µM (inactive) in the test with SK-MEL-2; > 25 µM (inactive) with DU-145; above 25 µM with HCT-15; > 25 µM (inactive) in the test with UO-31; > 25 µM (inactive) with IGROV-1; > 25 µM (inactive) in the test with A549. Also, the GI50 in the test with NCI/ADR-RES, in the test on ACHN, in the test on SK-MEL-28, with MCF7, in the test with SK-OV-3 and in the test with HT-29 was > 25 µM (inactive) in each case. Also, the GI50 in the test on A498 was > 25 µM (inactive).
As for `O=C(O)C(=Cc1ccnc2ccccc12)C(=O)O`, the GI50 with HL-60, with SW-620, in the test with SNB-19, in the test with COLO 205, in the test with HOP-62 and with Malme-3M was > 100 µM (inactive) throughout. Besides, the GI50 with SK-MEL-2 is > 100 µM (inactive); in the test on DU-145, > 100 µM (inactive); with HCT-15, above 100 µM; in the test on IGROV-1, > 100 µM (inactive); in the test with A549 it was > 100 µM (inactive); in the test with NCI/ADR-RES, > 100 µM (inactive). The GI50 in the test on ACHN, with SK-MEL-28, with MCF7, with SK-OV-3, in the test with HT-29 and in the test with A498 was > 100 µM (inactive) throughout.
In the case of `O=C1c2c(Br)sc(Br)c2[C@@H](Cl)[C@H]1Cl`, the GI50 was 3.27 µM (inactive) in the test on HL-60; 5.08 µM (inactive) in the test on SW-620; 18.9 µM (inactive) with SNB-19; 15.7 µM (inactive) in the test on COLO 205; 17.9 µM (inactive) with HOP-62; 19.1 µM (inactive) in the test on Malme-3M. Moreover, the GI50 with SK-MEL-2 was 18.9 µM (inactive); with DU-145 it was 18.7 µM (inactive); in the test on HCT-15, 19.7 µM; in the test with UO-31 it was 20.2 µM (inactive); in the test on IGROV-1 it was 17.7 µM (inactive); with A549, 29 µM (inactive). Besides, the GI50 in the test on NCI/ADR-RES is 33.1 µM (inactive); in the test with ACHN, 19.2 µM (inactive); in the test with SK-MEL-28 it was 23.3 µM (inactive); with MCF7, 21.5 µM (inactive); in the test on SK-OV-3, 19.4 µM (inactive); in the test with HT-29 it was 28.4 µM (inactive). In the test on A498, the GI50 is > 100 µM (inactive).
Take `COc1ccccc1/C=N/Nc1nnc2c3ccccc3c3ncccc3c2n1`: the GI50 was > 100 µM (inactive) in the test on HL-60; > 100 µM (inactive) in the test with SW-620; 39.2 µM (inactive) with SNB-19; 71.9 µM (inactive) with HCC 2998; > 100 µM (inactive) in the test with COLO 205; 17.1 µM (inactive) in the test on HOP-62. Also, the GI50 in the test with Malme-3M was 49.1 µM (inactive); in the test on SK-MEL-2, 24.2 µM (inactive); in the test on DU-145, > 100 µM (inactive); in the test with HCT-15, above 100 µM; with UO-31, > 100 µM (inactive); in the test on IGROV-1, 53.1 µM (inactive). Also, the GI50 in the test with A549 is > 100 µM (inactive); in the test on NCI/ADR-RES, 38.1 µM (inactive); in the test with ACHN, 57 µM (inactive); in the test with SK-MEL-28, > 100 µM (inactive); with MCF7, > 100 µM (inactive); in the test on SK-OV-3 it was 32.8 µM (inactive). The GI50 in the test with HT-29 was 57.4 µM (inactive).
